Structures can show the parent of a compound that is named as a salt. Where two headings read alike, the source gives them in different places.
Target: human muscarinic receptors Hm3 (Homo sapiens (Human), UniProt P20309)
Assay: biochemical
Type: binding
[1] = read-out: BINDING TO RECEPTOR M3 (IC50 nM)

Row | SMILES | IC50 [1] [nM] | IC50 [nM]
1 | CC(C(=O)O[C@H]1C[N+]2(CCCOc3ccccc3)CCC1CC2)(c1ccccc1)c1ccccc1 [Example 7, 3(R)-(2,2-Diphenylpropionyloxy)-1-(3-phenoxypropyl)-1-azoniabicyclo[2.2.2]octane; bromide] | 22 | –
2 | O=C(O[C@H]1C[N+]2(CCCOc3ccccc3)CCC1CC2)C(O)(c1ccccc1)c1ccco1 (stereo partly drawn) [Example 20, 3(R)-(2-Furan-2-yl-2-hydroxy-2-phenylacetoxy)-1-(3-phenoxypropyl)-1-azoniabicyclo[2.2.2]octane; bromide] | 6.8 | –
3 | O=C(O[C@H]1C[N+]2(CCCOc3ccccc3)CCC1CC2)C(c1ccccc1)c1ccccc1 [Example 1, 3 (R)-Diphenylacetoxy-1-(3-phenoxypropyl)-1-azoniabicyclo[2.2. 2]octane; bromide] | 31 | –
4 | O=C(O[C@H]1C[N+]2(CCCOc3ccccc3)CCC1CC2)C(c1cccs1)c1cccs1 [Example 35, 3(R)-(2,2-Dithien-2-ylacetoxy)-1-(3-phenoxypropyl)-1-azoniabicyclo[2.2.2]octane; bromide] | 13 | –
5 | O=C(O[C@H]1C[N+]2(CCCc3cccs3)CCC1CC2)C(O)(c1cccs1)c1cccs1 [Example 78, 3(R)-(2-Hydroxy-2,2-dithien-2-ylacetoxy)-1-(3-thien-2-ylpropyl)-1-azoniabicyclo[2.2.2]octane; bromide] | 5 | –
6 | O=C(O[C@H]1C[N+]2(CCCCc3ccccc3)CCC1CC2)C(O)(c1cccs1)c1cccs1 [Example 39, 3(R)-(2-Hydroxy-2,2-dithien-2-ylacetoxy)-1-(4-phenylbutyl)-1-azoniabicyclo[2.2.2]octane; bromide] | 3.8 | –
7 | O=C(O[C@H]1C[N+]2(CCCn3cccc3)CCC1CC2)C(O)(c1cccs1)c1cccs1 [Example 74, 3(R)-(2-Hydroxy-2,2-dithien-2-ylacetoxy)-1-(3-pyrrol-1-ylpropyl)-1-azoniabicyclo[2.2.2]octane; trifluoroacetate] | 16 | –
8 | O=C(O[C@H]1C[N+]2(CCOCc3ccccc3)CCC1CC2)C(O)(c1cccs1)c1cccs1 [Example 84, 1-(2-Benzyloxyethyl)-3(R)-(2-hydroxy-2,2-dithien-2-ylacetoxy)-1-azoniabicyclo[2.2.2]octane; trifluoroacetate] | 9.9 | –
9 | CC1(C(=O)O[C@H]2C[N+]3(CC=Cc4ccccc4)CCC2CC3)c2ccccc2-c2ccccc21 [Example 114, 3(R)-(9-Methyl-9[H]-fluorene-9-carbonyloxy)-1-(3-phenylallyl)-1-azoniabicyclo[2.2.2]octane; bromide] | 14 | –
10 | O=C(O[C@H]1C[N+]2(CCCOc3ccccc3O)CCC1CC2)C(O)(c1cccs1)c1cccs1 [Example 71, 3(R)-(2-Hydroxy-2,2-dithien-2-ylacetoxy)-1-[3-(2-hydroxyphenoxy)propyl]-1-azoniabicyclo[2.2.2]octane; trifluoroacetate] | 8.2 | –
11 | O=C(O[C@H]1C[N+]2(CCCOc3ccccc3)CCC1CC2)C(O)(c1ccccc1)c1cccs1 (stereo partly drawn) [Example 8, 3(R)-(2-Hydroxy-2-phenyl-2-thien-2-ylacetoxy)-1-(3-phenoxypropyl)-1-azoniabicyclo[2.2.2]octane; bromide] | 4.8 | –
12 | O=C(O[C@H]1C[N+]2(CC=Cc3ccccc3)CCC1CC2)C(O)(c1ccccc1)c1ccco1 (mixture of isomers) [Example 17, 3(R)-(2-Furan-2-yl-2-hydroxy-2-phenylacetoxy)-1-(3-phenylallyl)-1-azoniabicyclo[2.2.2]octane; bromide] | – | 14
13 | O=C(O[C@H]1C[N+]2(CCCOc3ccccc3)CCC1CC2)C(O)(c1ccsc1)c1ccsc1 [Example 89, 3(R)-(2-Hydroxy-2,2-dithien-3-ylacetoxy)-1-(3-phenoxypropyl)-1-azoniabicyclo[2.2.2]octane; bromide] | 5.4 | –
14 | O=C(O[C@H]1C[N+]2(CCCc3cccs3)CCC1CC2)C1(O)c2ccccc2Oc2ccccc21 [Example 138, 3(R)-(9-Hydroxy-9H-xanthene-9-carbonyloxy)-1-(3-thien-2-ylpropyl)-1-azoniabicyclo[2.2.2]octane; bromide] | 19 | –
15 | O=C(O[C@H]1C[N+]2(CCOc3ccccc3)CCC1CC2)C(O)(c1ccccc1)c1ccco1 (stereo partly drawn) [Example 18, 3(R)-(2-Furan-2-yl-2-hydroxy-2-phenylacetoxy)-1-(2-phenoxyethyl)-1-azoniabicyclo[2.2.2]octane; bromide] | 6.6 | –
16 | CC1(C(=O)O[C@H]2C[N+]3(CCCOc4ccccc4)CCC2CC3)c2ccccc2-c2ccccc21 [Example 116, 3(R)-(9-Methyl-9[H]-fluorene-9-carbonyloxy)-1-(3-phenoxypropyl)-1-azoniabicyclo[2.2.2]octane; bromide] | 23 | –
17 | O=C(O[C@H]1C[N+]2(CCCOc3ccc(F)cc3)CCC1CC2)C(O)(c1cccs1)c1cccs1 [Example 53, 1-[3-(4-Fluorophenoxy)propyl]-3(R)-(2-hydroxy-2,2-dithien-2-ylacetoxy)-1-azoniabicyclo[2.2.2]octane; chloride] | 5.6 | –

From US9333195B2 (priority 1999, dated 2016)
